In article PMC6327487, “A cytosolic NAD^+-dependent GPDH from maize (ZmGPDH1) is involved in conferring salt and osmotic stress tolerance” (BMC Plant Biology, 2019):

T1: ZmGPDH1 (Zea mays, UniProt A0A345VNI6)
T1 construct: gene GPDH1; full-length CDS (458 residues, 51 kDa; 1377 bp) in pET32a(+) NcoI/XhoI, 6xHis fusion of about 65 kDa, E. coli Rosetta (DE3), Ni-NTA
T1 sequence (A0A345VNI6 1-458): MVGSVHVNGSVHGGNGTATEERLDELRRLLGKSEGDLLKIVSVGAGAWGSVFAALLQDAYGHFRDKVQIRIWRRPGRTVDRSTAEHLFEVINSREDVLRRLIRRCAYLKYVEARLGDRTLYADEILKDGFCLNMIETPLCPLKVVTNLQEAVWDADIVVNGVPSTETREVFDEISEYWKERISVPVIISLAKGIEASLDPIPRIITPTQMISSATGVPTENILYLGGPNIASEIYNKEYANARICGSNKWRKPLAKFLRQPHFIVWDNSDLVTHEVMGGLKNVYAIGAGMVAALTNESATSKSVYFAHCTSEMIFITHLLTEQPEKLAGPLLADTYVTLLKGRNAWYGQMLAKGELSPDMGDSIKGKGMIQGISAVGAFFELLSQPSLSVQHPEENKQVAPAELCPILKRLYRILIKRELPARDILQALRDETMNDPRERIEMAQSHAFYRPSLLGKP

B1: ZmGPDH1 (Zea mays subsp. mays) (protein)
chain: T1 sequence (A0A345VNI6 1-458)
notes: full-length CDS (458 residues, 51 kDa; 1377 bp) in pET32a(+) NcoI/XhoI, 6xHis fusion of about 65 kDa, E. coli Rosetta (DE3), Ni-NTA

What was measured:
[1] = target: T1, ZmGPDH1; experiment: GPDH activity with and without NADH; assay type: biochemical; conditions: 4 mM DHAP, 0.2 mM NADH, 100 mM HEPES pH 6.9 (general assay)
[2] = substrate: O=C(CO)COP(=O)(O)O; experiment: purified protein; assay type: biochemical, Zea mays; conditions: DHAP reduction, 0.2 mM NADH, 100 mM HEPES pH 6.9 (general assay)

| Molecule | GPDH activity with and without NADH [1] | Km [2] |
| --- | --- | --- |
| NC(=O)C1=CN([C@@H]2O[C@H](COP(=O)(O)OP(=O)(O)OC[C@H]3O[C@@H](n4cnc5c(N)ncnc54)[C@H](O)[C@@H]3O)[C@@H](O)[C@H]2O)C=CC1 [NADH] | addition of NADH strongly stimulated the enzyme activity | – |
| B1 | – | 2750 µM |
